Test system: UCP3
Assay: UCP3 mRNA expression change in pre-adipocytes, RNA-Seq (Table 14)
Format: cell-based, human
Details: 12 days, 100 nM rosiglitazone or 25 nM miRNA analog
Protocol: In order to assess the effect of miRNA analogs on human pre-adipocytes differentiation into mature adipocytes, human subcutaneous pre-adipocytes (SuperLot 0048 from 8 female donors, ZenBio, NC) were plated on Day 0 into 96-well plates and allowed to attach overnight in preadipocyte medium (DMEM/Ham's F-12 (1:1, v/v), HEPES buffer, Fetal bovine serum and Antibiotics). The next day (Day 1), the medium was removed and replaced with differentiation medium (DMEM/Ham's F-12 (1:1, v/v), 100 μM Ascorbic Acid, 0.85 μM insulin, 20 nM sodium selenite, 0.2 nM, triiodothryonine, 1 μM dexamethasone, 100 μM isobutyl-methylxanthine, 100 nM Rosiglitazone and Antibiotics. The cells were allowed to incubate for 2 days at 37°, 5% CO2. After 2 days (Day 3), the medium was removed and replaced with fresh maintenance medium (DMEM/Ham's F-12 (1:1, v/v), 100 μM Ascorbic Acid, 0.85 μM insulin, 20 nM sodium selenite, 0.2 nM triiodothryonine, and Antibiotics). On Day 3, the cells were transfected with miRNA analogs (Dharmacon specific miRIDIAN Mimics and Hairpin Inhibitors) using the transfecting agent Dharmafect1. All treatments were in triplicate. […]
Changes in mRNA expression of UCP1, 2 and 3 were also measured in the presence of rosiglitazone or miRNA analogs, as shown below in Table 14.

CN(CCOc1ccc(CC2SC(=O)NC2=O)cc1)c1ccccn1 (stereo not shown) [rosiglitazone]
mRNA Expression changes (log ratios) UCP3: 0.26 log ratios
